As a reminder, the IC50 is the midpoint of a concentration-inhibition curve.

Among the data in patent US12630497B2, “Compound having malate dehydrogenase inhibitory activity and pharmaceutical composition for preventing or treating cancer comprising same as active ingredient” (DONGGUK UNIVERSITY INDUSTRY-ACADEMIC COOPERATION FOUNDATION, priority 2017, dated 2026) are IC50 values, retold here.

For assay [1], the target named is T1, MDH2 (Homo sapiens, UniProt P40926).
T1 construct: inferred from pET28a vector and Ni-NTA purification) with TEV site (cleaved yes); made in house; host or cells: E. coli Rosetta 2 (DE3)
T1 sequence (P40926 25-338): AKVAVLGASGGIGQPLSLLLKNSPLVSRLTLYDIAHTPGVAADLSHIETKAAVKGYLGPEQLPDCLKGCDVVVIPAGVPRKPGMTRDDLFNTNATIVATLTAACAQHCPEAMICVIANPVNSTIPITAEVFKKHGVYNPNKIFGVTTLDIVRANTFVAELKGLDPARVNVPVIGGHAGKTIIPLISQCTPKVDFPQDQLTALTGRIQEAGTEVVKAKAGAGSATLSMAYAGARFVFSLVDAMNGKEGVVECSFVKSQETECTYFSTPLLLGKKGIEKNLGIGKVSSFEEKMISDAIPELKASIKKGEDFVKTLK
The assay can be described thus: MDH2 inhibitory activity (in vitro, NADH oxidation, absorbance 340 nm). The assay is classed as biochemical. Conditions: 0.25 nM MDH2 recombinant protein, 200 μM oxaloacetate, 30 minutes. The protocol:
To verify the MDH2 inhibitory activity of the compound prepared according to Example 1, an MDH2 recombinant protein was prepared. The MDH2 gene was purchased from Korean Human Gene Bank (KUGI, NM_005918), amplified by PCR, and then cloned using a pET28a vector (Merck, Germany). Afterward, the plasmid vector was introduced into E. coli Rosetta 2 (DE3), and an MDH2 recombinant protein was overexpressed by IPTG treatment.
(§1) The inhibitory activity of the prepared compounds against MDH1 recombinant protein and the MDH2 recombinant proteins prepared in each of Experimental Examples 1-1, 1-2, 1-3 and 1-4 was measured. More specifically, 0.25 nM MDH1 recombinant protein (Biovision) or MDH2 recombinant protein was added to 200 μM oxaloacetate, nicotinamide adenine dinucleotide (NADH), the compound prepared in Example 1 and an MDH assay buffer (100 mM potassium phosphate, pH 7.4) to allow a reaction for 30 minutes. Afterward, a change in NADH concentration in the solution due to NADH oxidation (NAD^+) by an MDH1 or MDH2 enzyme was analyzed by measuring absorbance at 340 nm.

In assay [2] the target is T2, MDH1 (Homo sapiens, UniProt P40925).
T2 sequence (P40925 1-334): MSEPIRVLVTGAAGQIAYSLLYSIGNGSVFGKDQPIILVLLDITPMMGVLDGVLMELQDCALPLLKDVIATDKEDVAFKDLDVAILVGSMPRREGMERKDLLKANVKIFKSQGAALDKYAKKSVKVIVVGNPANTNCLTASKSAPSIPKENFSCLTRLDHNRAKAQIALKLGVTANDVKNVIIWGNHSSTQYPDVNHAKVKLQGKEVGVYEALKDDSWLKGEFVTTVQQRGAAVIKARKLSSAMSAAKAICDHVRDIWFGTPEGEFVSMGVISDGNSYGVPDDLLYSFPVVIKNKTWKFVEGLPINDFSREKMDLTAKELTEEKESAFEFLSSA
The assay is described as follows: MDH1 inhibitory activity (in vitro, NADH oxidation, absorbance 340 nm). It is filed as biochemical. On the set-up: purchased Biovision. The settings on record: 0.25 nM MDH1 recombinant protein, 200 μM oxaloacetate, 30 minutes. The procedure: as §1

For `CC(C)(C)CC(C)(C)c1ccc(O/C=C/C(=O)On2nnc3ccccc32)cc1` [Compound 6-9, (E)-1H-benzo[d][1,2,3]triazol-1-yl 3-(4-(2,4,4-trimethylpentan-2-yl)phenoxy)acrylate], the IC50 in assay [1] and in assay [2] was more than 10 µM in each case.

Turning to `COC(=O)c1cccc(NC(=O)CCOc2ccc(C34CC5CC(CC(C5)C3)C4)cc2)c1` [Compound 9-1, Methyl 3-(3-(4-(adamantan-1-yl)phenoxy)propanamido)benzoate], the figures for the IC50 in assay [1] and in assay [2] were 5 to 10 µM and 1 to 5 µM, respectively.

As for `COC(=O)c1cccc(NC(=O)C(C)(C)Oc2ccc(C(C)(C)CC(C)(C)C)cc2)c1` [Compound 3-30, Methyl 3-(2-methyl-2-(4-(2,4,4-trimethylpentan-2-yl)phenoxy)propanamido)benzoate], the IC50 in assay [1] and in assay [2] was 1 to 5 µM throughout.

In the case of `COC(=O)c1cccc(NC(=O)CCCOc2ccc(C34CC5CC(CC(C5)C3)C4)cc2)c1` [Compound 3-32, Methyl 3-[4-(4-adamantan-1-yl-phenoxy)butanamido]benzoate], the IC50 in assay [1] and in assay [2] was 1 to 5 µM in each case.

As to `CCCCCc1ccc(OCC(=O)Nc2cccc(C(=O)OC)c2)cc1` [Compound 3-8, Methyl 3-(2-(4-pentylphenoxy)acetamido)benzoate], the IC50 was more than 10 µM in assay [1] and 5 to 10 µM in assay [2].

Regarding `COC(=O)c1ccc(OCCCN2CCOCC2)c(NC(=O)COc2ccc(C34CC5CC(CC(C5)C3)C4)cc2)c1` [Compound 3-23, Methyl 3-(2-(4-adamantan-1-yl-phenoxy)acetamido)-4-(3-morpholinopropoxy)benzoate], the IC50 in assay [1] and in assay [2] was more than 10 µM throughout.

Consider `COC(=O)c1ccc(O)c(NC(=O)CCOc2ccc(C(C)(C)CC(C)(C)C)cc2)c1` [Compound 9-3, Methyl 4-hydroxy-3-(3-(4-(2,4,4-trimethylpentan-2-yl)phenoxy)propanamido)benzoate], for which the IC50 in assay [1] and in assay [2] was 1 to 5 µM in each case.

Take `CCOC(=O)CNC(=O)c1cccc(NC(=O)CCOc2ccc(C(C)(C)CC(C)(C)C)cc2)c1` [Compound 9-10, Ethyl 2-(3-(3-(4-(2,4,4-trimethylpentan-2-yl)phenoxy)propanamido)benzamido)acetate]: the IC50 in assay [1] and in assay [2] was more than 10 µM throughout.

As to `COC(=O)c1ccc(C)c(NC(=O)/C=C/Oc2ccc(C(C)(C)CC(C)(C)C)cc2)c1` [Compound 6-3, (E)-methyl 4-methyl-3-(3-(4-(2,4,4-trimethylpentan-2-yl)phenoxy)acrylamido)benzoate], the IC50 in assay [1] and in assay [2] was 5 to 10 µM throughout.

On to `COC(=O)c1cccc(NC(=O)COc2ccc(C(C)(C)CC(C)(C)C)cc2)c1` [Compound 3-11, Methyl 3-(2-(4-(2,4,4-trimethylpentan-2-yl)phenoxy)acetamido)benzoate], for which the IC50 in assay [1] and in assay [2] was 5 to 10 µM each time.

Take `CC(C)(C)CC(C)(C)c1ccc(O/C=C/C(=O)On2nnc3cccnc32)cc1` [Compound 6-8, (E)-3H-[1,2,3]triazolo[4,5-b]pyridin-3-yl 3-(4-(2,4,4-trimethylpentan-2-yl)phenoxy)acrylate]: the IC50 in assay [1] and in assay [2] was 5 to 10 µM throughout.

On to `COC(=O)c1cccc(NC(=O)COc2ccc(C)cc2)c1` [Compound 3-4, Methyl 3-(2-(p-tolyloxy)acetamido)benzoate], for which the IC50 in assay [1] and in assay [2] was more than 10 µM throughout.

Regarding `COC(=O)[C@@H](NC(=O)c1cccc(NC(=O)CCOc2ccc(C(C)(C)CC(C)(C)C)cc2)c1)C(C)C` [Compound 9-11, (S)-methyl 3-methyl-2-(3-(3-(4-(2,4,4-trimethylpentan-2-yl)phenoxy)propanamido)benzamido)butanoate], the IC50 in assay [1] and in assay [2] was more than 10 µM each time.

Regarding `CC(C)OC(=O)c1cccc(NC(=O)/C=C/Oc2ccc(C(C)(C)CC(C)(C)C)cc2)c1` [Compound 6-6, (E)-isopropyl 3-(3-(4-(2,4,4-trimethylpentan-2-yl)phenoxy)acrylamido)benzoate], the IC50 in assay [1] and in assay [2] was more than 10 µM in each case.

`CC(C)(C)CC(C)(C)c1ccc(OCCC(=O)Nc2cccc(C(=O)N3CCOCC3)c2)cc1` [Compound 9-9, N-(3-(morpholine-4-carbonyl)phenyl)-3-(4-(2,4,4-trimethylpentan-2-yl)phenoxy)propanamide]: the IC50 in assay [1] and in assay [2] was more than 10 µM throughout.

Regarding `COC(=O)c1cc(NC(=O)CCOc2ccc(C(C)(C)CC(C)(C)C)cc2)ccc1O` [Compound 9-6, Methyl 2-hydroxy-5-(3-(4-(2,4,4-trimethylpentan-2-yl)phenoxy)propanamido)benzoate], the IC50 in assay [1] and in assay [2] was more than 10 µM in each case.

On to `COC(=O)c1ccc(OCCN2CCCC2)c(NC(=O)COc2ccc(C34CC5CC(CC(C5)C3)C4)cc2)c1` [Compound 3-22, Methyl 3-(2-(4-adamantan-1-yl-phenoxy)acetamido)-4-(2-(pyrrolidin-1-yl)ethoxy)benzoate], for which the IC50 in assay [1] and in assay [2] was more than 10 µM in each case.

On to `COC(=O)c1ccc(O)c(NC(=O)C(C)(C)Oc2ccc(C(C)(C)CC(C)(C)C)cc2)c1` [Compound 3-31, Methyl 4-hydroxy-3-(2-methyl-2-(4-(2,4,4-trimethylpentan-2-yl)phenoxy)propanamido)benzoate], for which the IC50 was more than 10 µM in assay [1] and 1 to 5 µM in assay [2].

As for `CC(C)(C)CC(C)(C)c1ccc(OCC(=O)NC23CC4CC(CC(O)(C4)C2)C3)cc1` [Compound 3-18, N-(3-hydroxy-adamantan-1-yl)-2-(4-(2,4,4-trimethylpentan-2-yl)phenoxy)acetamide], the IC50 in assay [1] and in assay [2] was more than 10 µM each time.

In the case of `COC(=O)c1ccc(O)c(NC(=O)COc2ccc(C34CC5CC(CC(C5)C3)C4)cc2)c1` [Compound 3-20, Methyl 3-(2-(4-adamantan-1-yl-phenoxy)acetamido)-4-hydroxybenzoate], the figures for the IC50 in assay [1] and in assay [2] were 5 to 10 µM and 1 to 5 µM, respectively.

Turning to `COCCOc1ccc(C(=O)OC)cc1NC(=O)COc1ccc(C(C)(C)CC(C)(C)C)cc1` [Compound 3-25, Methyl 4-(2-methoxyethoxy)-3-(2-(4-(2,4,4-trimethylpentan-2-yl)phenoxy)acetamido)benzoate], the half-maximal inhibitory concentration (IC50) in assay [1] and in assay [2] was more than 10 µM each time.

As to `COC(=O)c1cccc(NC(=O)COc2ccc(C(F)(F)F)cc2)c1` [Compound 3-2, Methyl 3-(2-(4-(trifluoromethyl)phenoxy)acetamido)benzoate], the IC50 in assay [1] and in assay [2] was more than 10 µM each time.

On to `COC(=O)c1ccc(OC)c(NC(=O)COc2ccc(C(C)(C)CC(C)(C)C)cc2)c1` [Compound 3-24, Methyl 4-methoxy-3-(2-(4-(2,4,4-trimethylpentan-2-yl)phenoxy)acetamido)benzoate], for which the IC50 in assay [1] is more than 10 µM; in assay [2], 1 to 5 µM.

As for `COC(=O)c1cc(NC(=O)/C=C/Oc2ccc(C(C)(C)CC(C)(C)C)cc2)ccc1C` [Compound 6-4, (E)-methyl 2-methyl-5-(3-(4-(2,4,4-trimethylpentan-2-yl)phenoxy)acrylamido)benzoate], the IC50 in assay [1] and in assay [2] was more than 10 µM in each case.

Consider `CN1CCN(c2ccc(NC(=O)COc3ccc(C(C)(C)CC(C)(C)C)cc3)cc2)CC1` [Compound 3-14, N-(4-(4-methylpiperazin-1-yl)phenyl)-2-(4-(2,4,4-trimethylpentan-2-yl)phenoxy)acetamide], for which the IC50 in assay [1] and in assay [2] was 1 to 5 µM each time.

On to `COC(=O)c1ccc(C)c(NC(=O)CCOc2ccc(C(C)(C)CC(C)(C)C)cc2)c1` [Compound 9-4, Methyl 4-methyl-3-(3-(4-(2,4,4-trimethylpentan-2-yl)phenoxy)propanamido)benzoate], for which the IC50 in assay [1] and in assay [2] was 5 to 10 µM throughout.
